Results taken from patent US8575375B2, “Androstane and pregnane steroids with potent allosteric GABA receptor chloride ionophore modulating properties” (Research Triangle Institute, priority 2007, dated 2013).

Columns and labels:
GABAA receptor [1] = assay: [3H]Flunitrazepam binding assay (enhancement) in rat brain cerebral cortex homogenates; conditions: for [3H]Flunitrazepam Emax: percentage of Emax determined for allopregnanolone; for EC50: rat cortical membranes, 1.0 μM GABA, 1.0 nM [3H]flunitrazepam, mean±SD
Method: (§1) Tissue preparation. Rat brain cerebral cortex homogenates and the binding assays were conducted essentially as described (Carter et al., 1997). Briefly, adult male Sprague-Dawley rats (Charles River Laboratories, Raleigh, N.C.) were killed by excess CO2 asphyxiation, decapitated, and their brain rapidly removed and frozen on dry ice before being stored −76° C. The frozen cortices were placed in 10 volumes of an ice-cold 0.32 M sucrose solution and homogenized with a Teflon-glass homogenizer. The homogenate was centrifuged at 1500×g (10 min at 4° C.). The supernatant was retained and centrifuged at 10,000×g (20 min at 4° C.), yielding the P2 pellet. The P2 pellet was resuspended in an equal volume of a 50 mM Na+/K+ phosphate buffer containing 200 mM NaCl (pH 7.4) and centrifuged at 10,000×g (10 min at 4° C.). The pellet was washed twice more, resuspended in 1/10 volume of buffer and stored at −76° C. until the time of assay.
[^3H]Flunitrazepam binding assay. This assay was conducted as described for the [^35S]TBPS assay except that the assays contained 20 μg tissue homogenate, 1.0 μM GABA and 1.0 nM [^3H]flunitrazepam (74.1-85 Ci/mmol). Clonazepam (1.0 μM) was used to determine nonspecific binding.

GABAA receptor [2] = assay: [35S]TBPS binding assay in rat brain cerebral cortex homogenates; conditions: rat cortical membranes, 6.25 μM GABA, 2 nM [35S]TBPS; mean±SD
Method: as §1
[^35S]TBPS binding assays. These assays were carried out in 1.4 mL polypropylene tubes (Matrix Technologies, Hudson, N.H.). In a final volume of 0.5 mL, each tube contained 100 μL cortical membrane suspension (40 μg of protein, added last) 2 nM [^35S]TBPS (64-165 Ci/mmol), 6.25 μM GABA and one of six different concentrations of test compound added as 5 μL in 100% DMSO (1% final DMSO concentration). The test compounds were added to the assay tubes using a BiomekFX automated liquid handler with 96-well head (Beckman-Coulter, Fullerton, Calif.). Nonspecific binding was determined in the presence of 200 μM picrotoxin. The assays were incubated for 2 h at RT before being terminated by vacuum filtration through 96-well GF/B glass filter plates using a 96-well harvester (Brandel Scientific, Gaithersburg, Md.). Prior to harvesting, the filter plates were pre-soaked for 20 min in buffer containing 0.15% BSA and 0.1% PEI. The radioactivity remaining on the filter was determined in a TopCount 12-detector scintillation counter (Packard Instruments, Meriden, Conn.) using 20 μl of MicroScint20 (Packard Instruments) per well and standard liquid scintillation counting techniques.

[3] = system: pentylenetetrazole (PTZ) induced seizures; assay: PTZ seizure test; assay type: in vivo; conditions: FIG. 3; mice
Method: (§2) Male NIH Swiss mice (25-30 g) were housed two per cage. Animals were kept in a vivarium (temperature 22-26° C.; humidity 40-50%) with an artificial 12-h light/dark cycle and free access to food and water. Animals were allowed to acclimate to the vivarium for at least 5 days. The experiments were performed during the light phase of the light/dark cycle (between 9:30 AM and 3:30 PM), after at least a 30-min period of acclimation to the experimental room. Animals were maintained in facilities fully accredited by the Association for Assessment and Accreditation of Laboratory Animal Care, and experiments were performed under protocols approved by the Animal Care and Use Committee of the National Institute of Neurological Disorders and Stroke in strict compliance with the Guide for the Care and Use of Laboratory Animals of the National Research Council (National Academy Press, Washington, D.C.
(§3) Solutions of the steroids were made fresh daily in 40% hydroxypropyl-β-cyclodextrin in sterile 0.9% saline. Further dilutions were made using sterile saline. The steroids were injected intraperitoneally. The convulsant agent pentylenetetrazol (PTZ; Sigma-Aldrich) was dissolved in saline immediately before use. […]
The PTZ seizure test was carried out as described (Kokate et al., 1994). […] Mice failing to show clonic seizures lasting longer than 5 s were scored as protected. […]

[4] = system: electrically (6 Hz) induced seizures; assay: 6-Hz seizure test; assay type: in vivo; conditions: FIG. 3; mice
Method: as §2
as §3, with “use. All drug solutions were administered in a volume equaling 0.01 mL/g of the animal's body weight.” for “use.”

[5] = system: elevated zero maze behaviour; assay: Elevated zero maze test of anxiolytic activity; assay type: in vivo; conditions: therapeutic doses, mice
Method: as §2, with “D.C. […]” for “D.C.”
Anxiolytic activity was assessed with the elevated zero-maze as described (Kaminski et al., 2006). […] Five-min test sessions were video-recorded with a tripod-mounted camcorder. Percent time in open areas and number of entries into open areas were scored from the taped records using Observer 3.0 software (Noldus, Wageningen, The Netherlands). […] Dose-response data were analyzed by one-way analysis of variance. […]

| Compound | [3H]Flunitrazepam Emax (GABAA receptor [1]) | EC50 (GABAA receptor [1]) | IC50 (GABAA receptor [2]) | melting point | reduction of chemically (PTZ) induced seizures [3] | reduction of electrically (6 Hz) induced seizures [4] | percentage of time spent in open arms of the maze ([5]; FIG. 1A) | number of entries (open arms) ([5]; FIG. 1B) |
| --- | --- | --- | --- | --- | --- | --- | --- | --- |
| CS[C@H]1CCC2C3CC[C@H]4C[C@H](O)CC[C@]4(C)C3CC[C@@]21C (stereo partly drawn) [Compound B-5, 3α-Hydroxy-17β-thiomethyl-5α-androstane] | 131.7% | 75.9 ± 12.4 nM | 32 ± 5.19 nM | 151 to 153 °C | – | – | – | – |
| C[C@]12CC[C@@H](O)C[C@@H]1CC[C@@H]1[C@@H]2CC[C@]2(C)[C@@H]([N+](=O)[O-])CC[C@@H]12 [Compound A2-A, 17β-Nitro-5α-androstan-3α-ol] | 103% | 24 ± 2.5 nM | 13 ± 0.13 nM | – | reduce | reduce | significantly enhanced | significantly enhanced |
| CN(C)c1ccc([C@H]2C[C@@]3(C)C(CC[C@@H]3[N+](=O)[O-])C3CC[C@H]4C[C@](C)(O)CCC4C32)cc1 (stereo partly drawn) [Compound C-8, 11β-[4-(N,N-Dimethylamino)phenyl]-3α-hydroxy-3β-methyl-5α-17β-nitro-estrane] | 135% | 39.5 ± 20.6 nM | 9.79 ± 1.93 nM | – | – | – | – | – |
| C[C@@]1(O)CC[C@@]2(C)[C@@H](CC[C@@H]3[C@@H]2CC[C@]2(C)[C@@H]([N+](=O)[O-])CC[C@@H]32)C1 [Compound A2-B, 3α-Hydroxy-3β-methyl-17β-nitro-5α-androstane] | 99.1% | 33.5 ± 4.9 nM | 17.9 ± 6.19 nM | 211 to 213 °C | – | – | – | – |
| CN(C)c1ccc([C@H]2C[C@]3(C)[C@@H](O)CC[C@H]3[C@@H]3CC[C@H]4C[C@](C)(O)CC[C@@H]4[C@H]32)cc1.Cl | – | – | – | 230 to 232 °C (dec.) | – | – | – | – |
